According to US9889170B1, “Synthesis of nanoparticles using Balanites aegyptiaca” (KING SAUD UNIVERSITY, priority 2016, dated 2018):

How the values were obtained:
Assay in all cases: Agar well diffusion assay
Assay type in all cases: cell-based
[1] = system: Staphylococcus aureus (RCMB 010028); conditions: 100 μl per well, mean ± SD
[2] = system: Bacillis subtilis (RCMB 010067); conditions: 100 μl per well, mean ± SD
Procedure: (§1) Antimicrobial activity of nanoparticles was determined using the agar well diffusion assay method as described by Holder and Boyce, 1994. Three bacterial (two gram positive and one gram negative) and […], namely, Bacillis suhtilis (RCMB 010067), […] pneumoniae (RCMB 010011), Escherichia coli (RCMB 010052), and Aspergillus fumigatus (RCMB 02568). The tested organisms were sub-cultured on nutrient agar medium (Oxoid laboratories, UK) for bacteria and Sabouraud dextrose agar (Oxoid laboratories, UK) for fungi. Ampicillin and Gentamicin were used as positive control for gram positive and gram negative bacteria, respectively, while Amphotericin B was used for fungi. The plates were done in triplicates. Bacterial cultures were incubated at 37° C. for 24 h, while the fungal cultures were incubated at 25-30° C. for 3-7 days. Antimicrobial activity was determined by measuring the zone of inhibition [A. Agwa, (2000)]. The antimicrobial effect of the B. aegyptiaca nanoparticles was evaluated against different gram positive and gram negative bacteria as well as fungi. The results of the antimicrobial effects of the synthesized nanoparticles are compiled in the Tables below.

[3] = system: Bacillis subtilis (RCMB 010068); conditions: samples at 100 μl, mean ± SD
Procedure: as §1

[4] = system: Streptococcus pneumoniae (RCMB 010011); conditions: samples at 100 μl, mean ± SD
Procedure: as §1

[5] = system: Geotricum candidum (RCMB 05097); conditions: 100 μl per well, mean ± SD
[6] = system: Aspergillus fumigatus (RCMB 02567); conditions: samples at 100 μl, mean ± SD
Procedure: as §1

[7] = system: Aspergillus fumigatus (RCMB 02568); conditions: 100 μl per well, mean ± SD
Procedure: as §1

[8] = system: Escherichia coli (RCMB 010052); conditions: 100 μl per well, mean ± SD
Procedure: as §1

[9] = system: Pseudomonas aeruginosa (RCMB 010043); conditions: 100 μl per well, mean ± SD
[10] = system: Salmonella typhimurium (RCMB 010072); conditions: 100 μl per well, mean ± SD
[11] = system: Klebsiella pneumoniae (RCMB 000111); conditions: 100 μl per well, mean ± SD
[12] = system: Escherichia coli (RCMB 010054); conditions: samples at 100 μl, mean ± SD

CC1(C)S[C@@H]2[C@H](NC(=O)[C@H](N)c3ccccc3)C(=O)N2[C@H]1C(=O)O [Ampicillin]
Mean zone of inhibition beyond well diameter (6 mm) [1]: 27.4 ± 0.18 mm
Mean zone of inhibition beyond well diameter (6 mm) [2]: 32.4 ± 0.10 mm
Diameter of the inhibition zone beyond the well diameter of 6 mm [3]: 31.3 ± 1.5 mm
Diameter of the inhibition zone beyond the well diameter of 6 mm [4]: 21.0 ± 1.0 mm

C[C@@H]1[C@H](O)[C@@H](C)/C=C/C=C/C=C/C=C/C=C/C=C/C=C/[C@H](O[C@@H]2O[C@H](C)[C@@H](O)[C@H](N)[C@@H]2O)C[C@@H]2O[C@](O)(C[C@@H](O)C[C@@H](O)[C@H](O)CC[C@@H](O)C[C@@H](O)CC(=O)O[C@H]1C)C[C@H](O)[C@H]2C(=O)O [Amphotericin B]
Mean zone of inhibition beyond well diameter (6 mm) [5]: 28.7 ± 0.22 mm
Diameter of the inhibition zone beyond the well diameter of 6 mm [6]: 21.7 ± 1.5 mm
Mean zone of inhibition beyond well diameter (6 mm) [7]: 23.7 ± 0.10 mm

Gentamicin
Mean zone of inhibition beyond well diameter (6 mm) [8]: 22.3 ± 0.18 mm
Mean zone of inhibition beyond well diameter (6 mm) [9]: 17.3 ± 0.15 mm
Mean zone of inhibition beyond well diameter (6 mm) [10]: 25.4 ± 0.18 mm
Mean zone of inhibition beyond well diameter (6 mm) [11]: 20.2 ± 0.25 mm
Diameter of the inhibition zone beyond the well diameter of 6 mm [12]: 20.3 ± 0.58 mm
